Data taken from US20090209517A1, “Use of 5H-dibenz/b,f/azepine-5-carboxamide derivatives in the treatment of neuropathic pain and neurological disorders” (priority 2006, published 2009).
Like-named read-outs stand apart in the source and are kept apart here.

Columns and labels:
[1] = system: Mice (NMRI); assay: Formalin paw test (licking time); type: in vivo; conditions: for Formalin paw test licking time (s) at 100 mg/kg: 100 mg/kg p.o., 60 min before test, vehicle-treated mice 81.0±13.8 s; for Effect on licking in the formalin test at 300 mg/kg: 300 mg/kg p.o.; for ED50: Mus musculus, po, doses 10-300 mg/kg, FIG. 1, read-out: ED50 for reduction of licking time in the formalin paw test
Method: The method, which detects analgesic/anti-inflammatory activity, follows that described by Wheeler-Aceto et al (see WHEELER-ACETO, H. & A., C. (1991), “Standardization of the rat paw formalin test for the evaluation of analgesics”, Psychopharmacology, 104, 35-44). Mice (NMRI) were given an intraplantar injection of 5% formalin (25 μl) into the posterior left paw. […] The time spent licking was counted for 15 minutes, beginning 15 minutes after injection of formalin. 10 mice were studied per group. The test was performed blind. ESL and CBZ were tested at the doses of 10, 30, 100 and 300 mg/kg p.o., and OXC and R-Lic were tested at the doses of 100 and 300 mg/kg p.o., administered 60 minutes before the test (i.e. 45 minutes before formalin), and compared with a vehicle control group in each experiment.

[2] = Rotarod test (motor impairment); type: in vivo, mice; conditions: male, mouse, in vivo, ip; intraperitoneally, 15 min after administration, 15 r.p.m.
Method: (§1) A normal mouse can maintain its equilibrium for long periods in the rotating rod. Mice were examined for motor toxicity in the rotating rod apparatus (Accelerator Rota-Rod [Jones & Roberts] 7650; Ugo Basile). The motor performance of naive mice (male Charles River, weighing 30 to 35 g) was evaluated 15 min after the administration of the compounds to be tested. Animals were placed on the rotating rod at a speed of 15 r.p.m. In a drug-treated mouse the neurological deficit is indicated by the inability of the animal to maintain equilibrium for 1 min in each of three trials. ESL, CBZ, OXC and R-Lic were dissolved in dimethyl sulfoxide (DMSO) (2 ml/kg) and given intraperitoneally (see ROGAWSKI, M. A., […], S., JONES, S. M., RICE, K. C., […], A. & MONN, J. A. (1991). Anticonvulsant activity of the low-affinity uncompetitive N-methyl-D-aspartate antagonist (+−)-5-aminocarbonyl-10,11-dihydro-5H-dibenzo[a,d]cyclohepten-5,10-imine (ADCI): comparison with the structural analogs dizocilpine (MK-801) and carbamazepine. J Pharmacol Exp Ther, 259, 30-37).

[3] = system: Mice (NMRI); conditions: mouse, in vivo
[4] = system: voltage-gated sodium channel (VGSC); conditions: cited from earlier work
[5] = humans; subject-dependent; cited from earlier work
[6] = system: naive mice (male Charles River); assay: Rotarod test (motor impairment); type: in vivo; conditions: intraperitoneally, 15 min after administration, 15 r.p.m.
Method: as §1

[7] = system: voltage-sensitive sodium channels; assay: [3H]BTX displacement binding to whole brain membranes; conditions: FIG. 3; for Degree of interaction with site 2 in voltage-gated sodium channels, relative to oxcarbazepine: [3H]-BTX displacement
Method: Blockade of voltage-sensitive sodium channels was studied by investigating [3H]batrachotoxinin A […] ([3H]BTX) displacement binding to whole brain membranes. Animals were decapitated and their brains quickly removed. Membrane preparation and binding assays were performed essentially as previously described (Shimidzu et al., 1997). Brains (without cerebellum) were homogenised in 10 vol 0.32 M sucrose, 1 mM EDTA, 1 mg/ml bovine serum albumin (BSA), 5 mM HEPES/TRIS pH 7.4 with a Teflon homogeniser (8 strokes at 400 r.p.m). After a 10 min centrifugation at 1,000 g the supernatants were centrifuged for 20 min at 39,000 g and pellets were homogenised with 20 vol or 40 vol Na+-free buffer, respectively for [3H]-batrachotoxinin A 20-alpha-benzoate ([3H]-BTX) binding assays. Na+-free buffer had the following composition (in mM): 130 choline chloride, 0.8 MgSO4, 5.4 KCl, 5.5 D-glucose, 50 HEPES/TRIS, pH 7.4. The homogenate was centrifuged for 20 min at 39,000 g and the resultant pellets were resuspended in Na+-free buffer. Protein concentration in membrane preparations was determined with BioRad Protein Assay (BioRad) using a standard curve of BSA (50-250 μg/ml). In [3H]-BTX binding assay experiments membrane preparations (200 μg protein) were incubated for 1 h at 37° C. with 10 nM (inhibition experiments) or 1-200 nM (saturation experiments) [3H]-BTX in Na+-free buffer containing 2 μM scorpion toxin, 1 μM tetrodotoxin and 1 mg/ml BSA in 96-well EIA/RIA plates (COSTAR). In inhibition experiments the reaction buffer contained also 3-1000 μM of test drugs. Nonspecific binding was determined in the presence of 300 μM veratridine. Nonspecific binding was 26±2% of total binding at 10 nM [3H-BTX]. After incubation the reaction was terminated by vacuum filtration (Brandel 96 harvester) through glassfiber filtermats (Wallac). […] Filtermats were dried, impregnated with MeltiLex A scintillation mixture (Wallac), inserted into plastic sample bags (Wallac) and radioactivity determined in a Microbeta 1224-510 counter (Wallac).

| SMILES | Formalin paw test licking time (s) at 100 mg/kg [1] | Effect on licking in the formalin test at 300 mg/kg [1] | ED50 [1] | ED50 at 15 min [2] | Sedation (%) at 300 mg/kg ([3]; NMRI) | Sedation observed (mice sedated / mice given) ([3]; NMRI) | Affinity for the resting state of the channel relative to CBZ [4] | Proportion in which the enantiomer is formed as metabolite of oxcarbazepine [5] | Rotarod test ED50 values [6] | Ability to displace [3H]-BTX from its binding site in whole brain membranes, compared with oxcarbazepine [7] | Degree of interaction with site 2 in voltage-gated sodium channels, relative to oxcarbazepine [7] | Sedation (%) at 300 mg/kg [3] |
| --- | --- | --- | --- | --- | --- | --- | --- | --- | --- | --- | --- | --- |
| NC(=O)N1c2ccccc2C=Cc2ccccc21 [CBZ, carbamazepine, reference compound] | 5.3 s | abolished licking | 38.2 mg/kg | 29.7 mg/kg | 100% | 10/10 |  |  |  |  |  |  |
| CC(=O)O[C@H]1Cc2ccccc2N(C(N)=O)c2ccccc21 [ESL, S-(−)-10-acetoxy-10,11-dihydro-5H-dibenz/b,f/azepine-5-carboxamide] | 33.6 s | abolished licking | 69.7 mg/kg | 139 mg/kg | 10% | 1/10 | about 3 fold lower |  |  |  |  |  |
| NC(=O)N1c2ccccc2CC(=O)c2ccccc21 [Oxc, oxcarbazepine, reference compound] | 1 s |  |  | 50.2 mg/kg | 90% |  |  |  |  |  |  |  |
| NC(=O)N1c2ccccc2C[C@@H](O)c2ccccc21 [R-Lic, R-licarbazepine] | 36.7 s |  |  |  |  |  |  | ~20% | 97.4 mg/kg | reduced ability to displaced | approximately 2.5 times less | 20% |
| NC(=O)N1c2ccccc2C[C@H](O)c2ccccc21 [S-Lic, S-licarbazepine] |  |  |  |  |  |  |  | approximately 80% |  |  | approximately 2.5 times less |  |
